Laboratory results published in ChEMBL document CHEMBL1681728, “An automated, polymer-assisted strategy for the preparation of urea and thiourea derivatives of 15-membered azalides as potential antimalarial chemotherapeutics” (Bioorg Med Chem, 2011).

Experiments:
Type in all cases: functional, organism-based
Plasmodium falciparum [1] = test: Antimalarial activity against multidrug-resistant Plasmodium falciparum TM91C235 assessed as inhibition of [3H]hypoxanthine incorporation after 96 hrs by microtiter plate scintillation counting
Plasmodium falciparum [2] = test: Antimalarial activity against chloroquine-sensitive Plasmodium falciparum D6 assessed as inhibition of [3H]hypoxanthine incorporation after 96 hrs by microtiter plate scintillation counting
Plasmodium falciparum [3] = test: Antimalarial activity against chloroquine-,pyrimethamine-resistant Plasmodium falciparum W2 assessed as inhibition of [3H]hypoxanthine incorporation after 96 hrs by microtiter plate scintillation counting

Structure (SMILES) | IC50 (Plasmodium falciparum [1]) [nM] | IC50 (Plasmodium falciparum [2]) [nM] | IC50 (Plasmodium falciparum [3]) [nM]
CC[C@H]1OC(=O)[C@H](C)[C@@H](O[C@H]2C[C@@](C)(OC)[C@@H](O)[C@H](C)O2)[C@H](C)[C@@H](O[C@@H]2O[C@H](C)C[C@H](N(C)C)[C@H]2O)[C@](C)(O)C[C@@H](C)CN(CCCNC(=S)NC(C)C)[C@H](C)[C@@H](O)[C@]1(C)O | 428 | 2610 | 1300
CC[C@H]1OC(=O)[C@H](C)[C@@H](O[C@H]2C[C@@](C)(OC)[C@@H](O)[C@H](C)O2)[C@H](C)[C@@H](O[C@@H]2O[C@H](C)C[C@H](N(C)C)[C@H]2O)[C@](C)(O)C[C@@H](C)CN(CCCNC(=S)NCC(C)C)[C@H](C)[C@@H](O)[C@]1(C)O | 435 | 689 | 495
CC[C@H]1OC(=O)[C@H](C)[C@@H](O[C@H]2C[C@@](C)(OC)[C@@H](O)[C@H](C)O2)[C@H](C)[C@@H](O[C@@H]2O[C@H](C)C[C@H](N(C)C)[C@H]2O)[C@](C)(O)C[C@@H](C)CN(CCCNC(=O)Nc2ccc(OC)cc2)[C@H](C)[C@@H](O)[C@]1(C)O | 442 | 1970 | 256
CC[C@H]1OC(=O)[C@H](C)[C@@H](O[C@H]2C[C@@](C)(OC)[C@@H](O)[C@H](C)O2)[C@H](C)[C@@H](O[C@@H]2O[C@H](C)C[C@H](N(C)C)[C@H]2O)[C@](C)(O)C[C@@H](C)CN(CCCNC(=O)NCc2ccc(OC)cc2)[C@H](C)[C@@H](O)[C@]1(C)O | 484 | 1620 | 204
CC[C@H]1OC(=O)[C@H](C)[C@@H](O[C@H]2C[C@@](C)(OC)[C@@H](O)[C@H](C)O2)[C@H](C)[C@@H](O[C@@H]2O[C@H](C)C[C@H](N(C)C)[C@H]2O)[C@](C)(O)C[C@@H](C)CN(CCCNC(=O)Nc2c(C)noc2-c2ccccc2)[C@H](C)[C@@H](O)[C@]1(C)O | 492 | 936 | 734
CC[C@H]1OC(=O)[C@H](C)[C@@H](O[C@H]2C[C@@](C)(OC)[C@@H](O)[C@H](C)O2)[C@H](C)[C@@H](O[C@@H]2O[C@H](C)C[C@H](N(C)C)[C@H]2O)[C@](C)(O)C[C@@H](C)CN(CCCNC(=O)NCc2ccco2)[C@H](C)[C@@H](O)[C@]1(C)O | 496 | 5610 | 287
C=CCNC(=S)NCCCN1C[C@H](C)C[C@@](C)(O)[C@H](O[C@@H]2O[C@H](C)C[C@H](N(C)C)[C@H]2O)[C@@H](C)[C@H](O[C@H]2C[C@@](C)(OC)[C@@H](O)[C@H](C)O2)[C@@H](C)C(=O)O[C@H](CC)[C@@](C)(O)[C@H](O)[C@H]1C | 514 | 1140 | 276
CC[C@H]1OC(=O)[C@H](C)[C@@H](O[C@H]2C[C@@](C)(OC)[C@@H](O)[C@H](C)O2)[C@H](C)[C@@H](O[C@@H]2O[C@H](C)C[C@H](N(C)C)[C@H]2O)[C@](C)(O)C[C@@H](C)CN(CCCNC(=O)Nc2cccs2)[C@H](C)[C@@H](O)[C@]1(C)O | 549 | 964 | 721
CC[C@H]1OC(=O)[C@H](C)[C@@H](O[C@H]2C[C@@](C)(OC)[C@@H](O)[C@H](C)O2)[C@H](C)[C@@H](O[C@@H]2O[C@H](C)C[C@H](N(C)C)[C@H]2O)[C@](C)(O)C[C@@H](C)CN(CCCNC(=O)Nc2ccc(CC#N)cc2)[C@H](C)[C@@H](O)[C@]1(C)O | 571 | 1790 | 149
CC[C@H]1OC(=O)[C@H](C)[C@@H](O[C@H]2C[C@@](C)(OC)[C@@H](O)[C@H](C)O2)[C@H](C)[C@@H](O[C@@H]2O[C@H](C)C[C@H](N(C)C)[C@H]2O)[C@](C)(O)C[C@@H](C)CN(CCCNC(=O)NC2CCCC2)[C@H](C)[C@@H](O)[C@]1(C)O | 616 | 6020 | 277
CC[C@H]1OC(=O)[C@H](C)[C@@H](O[C@H]2C[C@@](C)(OC)[C@@H](O)[C@H](C)O2)[C@H](C)[C@@H](O[C@@H]2O[C@H](C)C[C@H](N(C)C)[C@H]2O)[C@](C)(O)C[C@@H](C)CN(CCCNC(=O)NC(C)(C)C)[C@H](C)[C@@H](O)[C@]1(C)O | 800 | 5510 | 410
CC[C@H]1OC(=O)[C@H](C)[C@@H](O[C@H]2C[C@@](C)(OC)[C@@H](O)[C@H](C)O2)[C@H](C)[C@@H](O[C@@H]2O[C@H](C)C[C@H](N(C)C)[C@H]2O)[C@](C)(O)C[C@@H](C)CN(CCCNC(=S)Nc2cccnc2)[C@H](C)[C@@H](O)[C@]1(C)O | 801 | 1210 | 1200
CCCCNC(=O)NCCCN1C[C@H](C)C[C@@](C)(O)[C@H](O[C@@H]2O[C@H](C)C[C@H](N(C)C)[C@H]2O)[C@@H](C)[C@H](O[C@H]2C[C@@](C)(OC)[C@@H](O)[C@H](C)O2)[C@@H](C)C(=O)O[C@H](CC)[C@@](C)(O)[C@H](O)[C@H]1C | 820 | 5800 | 370
CC[C@H]1OC(=O)[C@H](C)[C@@H](O[C@H]2C[C@@](C)(OC)[C@@H](O)[C@H](C)O2)[C@H](C)[C@@H](O[C@@H]2O[C@H](C)C[C@H](N(C)C)[C@H]2O)[C@](C)(O)C[C@@H](C)CN(CCCNC(=O)Nc2ccc3c(c2)CCO3)[C@H](C)[C@@H](O)[C@]1(C)O | 923 | 2050 | 1590
CC[C@H]1OC(=O)[C@H](C)[C@@H](O[C@H]2C[C@@](C)(OC)[C@@H](O)[C@H](C)O2)[C@H](C)[C@@H](O[C@@H]2O[C@H](C)C[C@H](N(C)C)[C@H]2O)[C@](C)(O)C[C@@H](C)CN(CCCNC(=S)NC2CC2)[C@H](C)[C@@H](O)[C@]1(C)O | 972 | 3720 | 679
CCC(C)NC(=O)NCCCN1C[C@H](C)C[C@@](C)(O)[C@H](O[C@@H]2O[C@H](C)C[C@H](N(C)C)[C@H]2O)[C@@H](C)[C@H](O[C@H]2C[C@@](C)(OC)[C@@H](O)[C@H](C)O2)[C@@H](C)C(=O)O[C@H](CC)[C@@](C)(O)[C@H](O)[C@H]1C (some centres not stated) | 1180 | 14000 | 489
CC[C@H]1OC(=O)[C@H](C)[C@@H](O[C@H]2C[C@@](C)(OC)[C@@H](O)[C@H](C)O2)[C@H](C)[C@@H](O[C@@H]2O[C@H](C)C[C@H](N(C)C)[C@H]2O)[C@](C)(O)C[C@@H](C)CN(CCCNC(=S)Nc2ccc(N3CCOCC3)nc2)[C@H](C)[C@@H](O)[C@]1(C)O | 1570 | 2840 | 1960
CCNC(=O)NCCCN1C[C@H](C)C[C@@](C)(O)[C@H](O[C@@H]2O[C@H](C)C[C@H](N(C)C)[C@H]2O)[C@@H](C)[C@H](O[C@H]2C[C@@](C)(OC)[C@@H](O)[C@H](C)O2)[C@@H](C)C(=O)O[C@H](CC)[C@@](C)(O)[C@H](O)[C@H]1C | 1980 | 13700 | 13700
CC[C@H]1OC(=O)[C@H](C)[C@@H](O[C@H]2C[C@@](C)(OC)[C@@H](O)[C@H](C)O2)[C@H](C)[C@@H](O[C@@H]2O[C@H](C)C[C@H](N(C)C)[C@H]2O)[C@](C)(O)C[C@@H](C)CN(CCCNC(=S)NCCN2CCCCC2)[C@H](C)[C@@H](O)[C@]1(C)O | 3030 | 9290 | 3300
